Measurements published in patent publication US10294202B2, “Pyrrolidinones as herbicides” (FMC Corporation, priority 2013, dated 2019).

Key:
barnyardgrass [1] = assay: Test A pre-/postemergence herbicide test; type: in vivo, Echinochloa crus-galli
In short: (§1)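 Both application timings used compounds in a non-phytotoxic solvent plus surfactant. Pre-emergence: soil sprayed directly after seeding into loam/sand. Post-emergence: foliage of 2–10 cm seedlings (1–2 leaves) sprayed. Injury rated ~10 days later, 0–100.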

pigweed = assay: Test A pre-/postemergence herbicide test; type: in vivo, Amaranthus retroflexus
In short: as §1

corn [2] = assay: Test A pre-/postemergence herbicide test; type: in vivo, Zea mays
In short: as §1

corn [3] = assay: Test C pre-/postemergence herbicide test; type: in vivo, Zea mays
Description: (§2) Seeds of plant species selected from blackgrass (Alopecurus myosuroides), ryegrass, Italian (Italian ryegrass, Lolium multiflorum), wheat (winter wheat, Triticum aestivum), galium (catchweed bedstraw, Galium aparine), corn (Zea mays), crabgrass, large (large crabgrass, Digitaria sanguinalis), foxtail, giant (giant foxtail, Setaria faberii), johnsongrass (Sorghum halepense), lambsquarters (Chenopodium album), morningglory (Ipomoea coccinea), nutsedge, yellow (yellow nutsedge, Cyperus esculentus), pigweed (Amaranthus retroflexus), ragweed (common ragweed, Ambrosia elatior), soybean (Glycine max), barnyardgrass (Echinochloa crus-galli), oilseed rape (Brassica napus), waterhemp (common waterhemp, Amaranthus rudis), kochia (Kochia scoparia), oat, wild (wild oat, Avena fatua), surinam grass (Brachiaria decumbens), foxtail, green (green foxtail, Setaria viridis), goosegrass (Eleusine indica), bromegrass, downy (downy bromegrass, Bromus tectorum), nightshade (eastern black nightshade, Solanum ptycanthum), cocklebur (common cocklebur, Xanthium strumarium), cupgrass, woolly (woolly cupgrass, Eriochloa villosa), bermudagrass (Cynodon dactylon), sunflower, (common oilseed sunflower, Helianthus annuus), Russian thistle (Salsola kali) and velvetleaf (Abutilon theophrasti) were planted into a blend of loam soil and sand and treated preemergence with test chemicals formulated in a non-phytotoxic solvent mixture which included a surfactant. At the same time, plants selected from these crop and weed species and also barley (winter barley, Hordeum vulgare), […]), chickweed (common chickweed, Stellaria media), deadnettle (henbit deadnettle, Lamium amplexicaule), and canarygrass (littleseed canarygrass, Phalaris minor) were planted in pots containing Redi-Earth® planting medium (Scotts Company, 14111 Scottslawn Road, Marysville, Ohio 43041) comprising spaghnum peat moss, vermiculite, wetting agent and starter nutrients and treated with postemergence applications of test chemicals formulated in the same manner. Plants ranged in height from 2 to 18 cm (1- to 4-leaf stage) for postemergence treatments. Treated plants and controls were maintained in a greenhouse for 13 to 15 days, after which time all species were compared to controls and visually evaluated. Plant response ratings, summarized in Table C, are based on a scale of 0 to 100 where 0 is no effect and 100 is complete control. A dash (-) response means no test result.

foxtail, giant = assay: Test C pre-/postemergence herbicide test; type: in vivo, Setaria faberii
Description: as §2

nutsedge, yellow = assay: Test C pre-/postemergence herbicide test; type: in vivo, Cyperus esculentus
Description: as §2

soybean = assay: Test C pre-/postemergence herbicide test; type: in vivo, Glycine max
Description: as §2

barnyardgrass [4] = assay: Test C pre-/postemergence herbicide test; type: in vivo, Echinochloa crus-galli; conditions: for Barnyardgrass plant response rating: scale 0 to 100, 0 is no effect and 100 is complete control
Description: as §2

oilseed rape = assay: Test C pre-/postemergence herbicide test; type: in vivo, Brassica napus
Description: as §2

[5] = Postemergence, 125 g ai/ha, 0 to 100 scale, 0 no effect, 100 complete control
[6] = Postemergence, 500 g ai/ha, 0 to 100 scale (0 no effect, 100 complete control)
[7] = Preemergence, 125 g ai/ha, visual rating on 0 to 100 scale (0 no effect, 100 complete control)
[8] = preemergence, 500 g ai/ha, 0 to 100 scale
[9] = Preemergence, 31 g ai/ha, scale 0 to 100 (0 no effect, 100 complete control)
[10] = Preemergence, 62 g ai/ha, scale 0 to 100
[11] = Preemergence, 125 g ai/ha, scale 0 to 100 (0 no effect, 100 complete control)
[12] = Preemergence, 250 g ai/ha, scale 0 to 100 (0 no effect, 100 complete control)
[13] = 125 g ai/ha, visual rating, 0 to 100 scale, 0 no effect, 100 complete control, approximately 10 days, preemergence
[14] = Postemergence, 125 g ai/ha, 0 to 100 scale, 0 is no effect, 100 is complete control
[15] = preemergence, 500 g ai/ha, 0 to 100 scale, 0 is no effect and 100 is complete control
[16] = Preemergence, 31 g ai/ha, scale 0 to 100, 0 is no effect and 100 is complete control
[17] = Preemergence, 62 g ai/ha, scale 0 to 100 (0 no effect, 100 complete control)
[18] = Preemergence, 16 g ai/ha, scale 0 to 100
[19] = Postemergence, 31 g ai/ha, scale 0 to 100 (0 no effect, 100 complete control)
[20] = Postemergence, 62 g ai/ha, scale 0 (no effect) to 100 (complete control)
[21] = Postemergence, 125 g ai/ha, scale 0 to 100 (0 no effect, 100 complete control)
[22] = Postemergence, 250 g ai/ha, scale 0 to 100 (0 no effect, 100 complete control)

## O=C1NCC(c2ccc(F)cc2)C1C(=O)Nc1ccccc1F (racemic) [Compound 16]
Barnyardgrass [1]; [5]
  Plant response rating, Barnyardgrass: 70
Barnyardgrass [1]; [6]
  Plant response rating, Barnyardgrass: 90
Barnyardgrass [1]; [7]
  Barnyardgrass plant response rating: 80
Barnyardgrass [1]; preemergence, 500 g ai/ha, 0 to 100 scale (0 no effect, 100 complete control)
  Plant response rating, Barnyardgrass: 90
pigweed; [5]
  Plant response rating, Pigweed: 0
pigweed; [6]
  Plant response rating, Pigweed: 0
pigweed; [7]
  Pigweed plant response rating: 0
pigweed; [8]
  Plant response rating, Pigweed: 0
Corn [2]; [5]
  Plant response rating, Corn: 0
Corn [2]; [6]
  Plant response rating, Corn: 30
Corn [2]; [7]
  Corn plant response rating: 0
Corn [2]; [8]
  Plant response rating, Corn: 30
Corn [3]; [9]
  Corn plant response rating: 0
Corn [3]; [10]
  Plant response rating, Corn: 0
Corn [3]; [11]
  Plant response rating, Corn: 5
Corn [3]; [12]
  Plant response rating, Corn: 10
foxtail, giant; [9]
  Foxtail, Giant plant response rating: 0
foxtail, giant; [10]
  Plant response rating, Foxtail, Giant: 70
foxtail, giant; [11]
  Plant response rating, Foxtail, Giant: 90
foxtail, giant; [12]
  Plant response rating, Foxtail, Giant: 95
nutsedge, yellow; [10]
  Plant response rating, Nutsedge, Yellow: 0
nutsedge, yellow; [11]
  Plant response rating, Nutsedge, Yellow: 0
soybean; [10]
  Plant response rating, Soybean: 0
soybean; [11]
  Plant response rating, Soybean: 0

## O=C1NCC(c2cccc(C(F)(F)F)c2)C1C(=O)Nc1ccccc1Cl (racemic) [Compound 189]
Barnyardgrass [1]; [13]
  Plant response rating, Barnyardgrass: 80
Barnyardgrass [1]; [14]
  Plant response rating, Barnyardgrass: 90
Barnyardgrass [1]; Postemergence, 500 g ai/ha
  Barnyardgrass plant response rating (0 to 100 scale, 0 is no effect, 100 is complete control): 90
Barnyardgrass [1]; [15]
  Plant response rating, Barnyardgrass: 90
pigweed; [13]
  Plant response rating, Pigweed: 0
pigweed; [14]
  Plant response rating, Pigweed: 0
pigweed; Postemergence, 500 g ai/ha
  Pigweed plant response rating (0 to 100 scale, 0 is no effect, 100 is complete control): 0
pigweed; [15]
  Plant response rating, Pigweed: 0
Corn [2]; [13]
  Plant response rating, Corn: 0
Corn [2]; [14]
  Plant response rating, Corn: 0
Corn [2]; Postemergence, 500 g ai/ha
  Corn plant response rating (0 to 100 scale, 0 is no effect, 100 is complete control): 60
Corn [2]; [15]
  Plant response rating, Corn: 0
Corn [3]; [16]
  Corn plant response rating: 0
Corn [3]; [17]
  Corn plant response rating: 0
Corn [3]; [11]
  Plant response rating, Corn: 40
Corn [3]; [18]
  Plant response rating, Corn: 0
foxtail, giant; [16]
  Foxtail, Giant plant response rating: 80
foxtail, giant; [17]
  Foxtail, Giant plant response rating: 90
foxtail, giant; [11]
  Plant response rating, Foxtail, Giant: 95
foxtail, giant; [18]
  Plant response rating, Foxtail, Giant: 85
nutsedge, yellow; [16]
  Nutsedge, Yellow plant response rating: 0
nutsedge, yellow; [17]
  Nutsedge, Yellow plant response rating: 0
nutsedge, yellow; [11]
  Plant response rating, Nutsedge, Yellow: 0
nutsedge, yellow; [18]
  Plant response rating, Nutsedge, Yellow: 0
soybean; [16]
  Soybean plant response rating: 5
soybean; [17]
  Soybean plant response rating: 10
soybean; [11]
  Plant response rating, Soybean: 0
soybean; [18]
  Plant response rating, Soybean: 0
Barnyardgrass [4]; Preemergence, 31 g ai/ha
  Barnyardgrass plant response rating: 85
Barnyardgrass [4]; [10]
  Plant response rating, Barnyardgrass: 90
Barnyardgrass [4]; [11]
  Plant response rating, Barnyardgrass: 90
Barnyardgrass [4]; [18]
  Plant response rating, Barnyardgrass: 45
Oilseed rape; [16]
  Oilseed Rape plant response rating: 0
Oilseed rape; [17]
  Oilseed Rape plant response rating: 0
Oilseed rape; [11]
  Plant response rating, Oilseed Rape: 20
Oilseed rape; [18]
  Plant response rating, Oilseed Rape: 0

## O=C1NCC(c2cccc(C(F)(F)F)c2)C1C(=O)Nc1ccc(F)cc1F (racemic) [Compound 207]
Barnyardgrass [1]; [13]
  Plant response rating, Barnyardgrass: 90
Barnyardgrass [1]; [14]
  Plant response rating, Barnyardgrass: 80
Barnyardgrass [1]; Postemergence, 500 g ai/ha
  Barnyardgrass plant response rating (0 to 100 scale, 0 is no effect, 100 is complete control): 90
Barnyardgrass [1]; [15]
  Plant response rating, Barnyardgrass: 90
pigweed; [13]
  Plant response rating, Pigweed: 0
pigweed; [14]
  Plant response rating, Pigweed: 0
pigweed; Postemergence, 500 g ai/ha
  Pigweed plant response rating (0 to 100 scale, 0 is no effect, 100 is complete control): 0
pigweed; [15]
  Plant response rating, Pigweed: 20
Corn [2]; [14]
  Plant response rating, Corn: 50
Corn [2]; Postemergence, 500 g ai/ha
  Corn plant response rating (0 to 100 scale, 0 is no effect, 100 is complete control): 70
Corn [3]; [19]
  Plant response rating, Corn: 0
Corn [3]; [20]
  Plant response rating, Corn: 0
Corn [3]; [21]
  Plant response rating, Corn: 0
Corn [3]; [22]
  Plant response rating, Corn: 5
Corn [3]; [16]
  Corn plant response rating: 0
Corn [3]; [17]
  Corn plant response rating: 0
Corn [3]; [11]
  Plant response rating, Corn: 55
Corn [3]; Preemergence, 250 g ai/ha
  Plant response rating (scale of 0 to 100), Corn: 30
foxtail, giant; [19]
  Plant response rating, Foxtail, Giant: 20
foxtail, giant; [20]
  Plant response rating, Foxtail, Giant: 0
foxtail, giant; [21]
  Plant response rating, Foxtail, Giant: 65
foxtail, giant; [22]
  Plant response rating, Foxtail, Giant: 75
foxtail, giant; [16]
  Foxtail, Giant plant response rating: 85
foxtail, giant; [17]
  Foxtail, Giant plant response rating: 90
foxtail, giant; [11]
  Plant response rating, Foxtail, Giant: 90
foxtail, giant; Preemergence, 250 g ai/ha
  Plant response rating (scale of 0 to 100), Foxtail, Giant: 98
nutsedge, yellow; [19]
  Plant response rating, Nutsedge, Yellow: 10
nutsedge, yellow; [20]
  Plant response rating, Nutsedge, Yellow: 0
nutsedge, yellow; [21]
  Plant response rating, Nutsedge, Yellow: 0
nutsedge, yellow; [22]
  Plant response rating, Nutsedge, Yellow: 0
nutsedge, yellow; [16]
  Nutsedge, Yellow plant response rating: 0
nutsedge, yellow; [17]
  Nutsedge, Yellow plant response rating: 0
nutsedge, yellow; [11]
  Plant response rating, Nutsedge, Yellow: 0
nutsedge, yellow; Preemergence, 250 g ai/ha
  Plant response rating (scale of 0 to 100), Nutsedge, Yellow: 0
soybean; [19]
  Plant response rating, Soybean: 0
soybean; [20]
  Plant response rating, Soybean: 5
soybean; [21]
  Plant response rating, Soybean: 5
soybean; [22]
  Plant response rating, Soybean: 5
soybean; [16]
  Soybean plant response rating: 0
soybean; [17]
  Soybean plant response rating: 0
soybean; [11]
  Plant response rating, Soybean: 0
soybean; Preemergence, 250 g ai/ha
  Plant response rating (scale of 0 to 100), Soybean: 0
Barnyardgrass [4]; [19]
  Plant response rating, Barnyardgrass: 0
Barnyardgrass [4]; [20]
  Plant response rating, Barnyardgrass: 10
Barnyardgrass [4]; [21]
  Plant response rating, Barnyardgrass: 35
Barnyardgrass [4]; [22]
  Plant response rating, Barnyardgrass: 65
Barnyardgrass [4]; Preemergence, 31 g ai/ha
  Barnyardgrass plant response rating: 75
Barnyardgrass [4]; [10]
  Plant response rating, Barnyardgrass: 85
Barnyardgrass [4]; [11]
  Plant response rating, Barnyardgrass: 85
Barnyardgrass [4]; Preemergence, 250 g ai/ha
  Plant response rating (scale of 0 to 100; 0 is no effect, 100 is complete control), Barnyardgrass: 95
Oilseed rape; [19]
  Plant response rating, Oilseed Rape: 0
Oilseed rape; [20]
  Plant response rating, Oilseed Rape: 0
Oilseed rape; [21]
  Plant response rating, Oilseed Rape: 10
Oilseed rape; [22]
  Plant response rating, Oilseed Rape: 30
Oilseed rape; [16]
  Oilseed Rape plant response rating: 0
Oilseed rape; [17]
  Oilseed Rape plant response rating: 0
Oilseed rape; [11]
  Plant response rating, Oilseed Rape: 0
Oilseed rape; Preemergence, 250 g ai/ha
  Plant response rating (scale of 0 to 100), Oilseed Rape: 80
